Our source for the mean average avoidance values is patent US20060003992A1, “New drug combinations” (Pharmacia & Upjohn Company, LLC, priority 2001, published 2006).

The experiment deals with mice. As to the kind of experiment: conditioned avoidance response assay. The conditions noted are these: tested 20 min after. The format is in vivo. The protocol:
Eleven mice per sample group are tested using a conditioned avoidance response assay, which can be used to predict the likelihood of possible detrimental side effects associated with the administration of a neuroleptic agent. The regimen included a pre-treatment with either saline or reboxetine (at a dosage of 6 mg/kg, i.p.) followed thirty minutes afterwards by treatment with either saline or raclopride (0.05 mg/kg or 0.10 mg/kg, s.c.). The mice are tested in the assay twenty minutes after administration of the saline or raclopride. The mean average avoidance as measured by the assay for the six different sample groups are as follows: […]

Regarding `CCOc1ccccc1OC(c1ccccc1)C1CNCCO1` (stereo not drawn) [reboxetine], the mean average avoidance (reboxetine 6 mg/kg i.p. pre-treatment, 30 min later saline) turned out to be 100. For `CCN1CCC[C@H]1CNC(=O)c1c(O)c(Cl)cc(Cl)c1OC` [raclopride], the mean average avoidance is reported as 90 (saline pre-treatment, 30 min later raclopride 0.05 mg/kg s.c.) and 70 (saline pre-treatment, 30 min later raclopride 0.10 mg/kg s.c.).
